The target in one data set is human Akt1 kinase (Homo sapiens, UniProt P31749). Description: In vitro Akt1 assay (IMAP fluorescence polarization, phosphorylation of TAMRA-peptide). The settings on record: 40 µM ATP; for inhibition at 12.5 µM: 12.5 uM compound, read-out: Akt1 inh% @12.5 uM. It is filed as biochemical. The procedure:
The inhibition of Akt1 by the compounds described in the present invention were determined measuring the phosphorylation of a fluorescently-labeled peptide (TAMRA-peptide) by human Akt1 kinase by fluorescent polarization using a commercially available IMAP Screening Express Assay Kit (Molecular Devices).
Akt1 kinase assays were performed in low protein binding 384-well plates (Corning). Test compounds were diluted in 100% DMSO to 5 mM stock concentration and then further dilutions were made in H2O or 100% DMSO to desirable concentrations.
Each reaction consisted of 5 nM enzyme: Akt1 kinase, 400 nM TAMRA-peptide (5-TAMRA-GRTGRRNSI-COOH; Genecust), 40 µM ATP and kinase buffer: 20 mM MES pH6, 1 mM DTT, 10 mM MgCl2, 2 mM MnCl2, 0.01 V/V% TritonX (all reagents from Sigma-Aldrich).
For each reaction, 4 or 6 µl containing TAMRA-peptide, ATP and kinase buffer were combined with 2 µl diluted compound in H2O or 0.02 µl compound in 100% DMSO. The kinase reaction was started by the addition of 2 µl diluted enzyme. The reaction was allowed to run for 1 hour at room temperature. The reaction was stopped by adding 15 µl IMAP beads (1:400 beads in progressive (75% buffer A, 25% buffer B) 1x buffer). After an additional hour, fluorescent polarization (Ex: 550-10 nm, Em: 590-10 nm, Dich: 561 nm) was measured using an Analyst GT (Molecular Devices).

Another data set concerns the target human Ack1 kinase (Homo sapiens, UniProt Q07912). Description: In vitro Ack1 assay (TranScreener ADP2 FP, generation of ADP). Format: biochemical. Conditions: 12.5 uM compound; 3.5 µM ATP; read-out: Ack1 inh% @12.5 uM. The procedure:
The activity of the compounds described in the present invention can be determined by the following kinase assay, which measures the generation of ADP by human Ack1 kinase by fluorescent polarization using a commercially available TranScreener ADP2 FP Assay Kit (BellBrook Labs).
Ack1 kinase assays were performed in low protein binding 384-well plates (Corning). Test compounds were diluted in 100% DMSO to 5 mM stock concentration and then further dilutions were made in H2O or 100% DMSO to desirable concentrations.
Each reaction consisted of 5 nM enzyme: Ack1 kinase, Poly Glu-Tyr (4:1) (Sigma), 3.5 µM ATP and kinase buffer: 20 mM HEPES pH7.5, 1 mM DTT, 2 mM MgCl2, 0.4 mM MnCl2, 0.01 V/V% Tween20 (all reagents from Sigma-Aldrich)
For each reaction, 4 or 6 µl containing Poly Glu-Tyr (4:1), ATP and kinase buffer were combined with 2 µl diluted compound in H2O or 0.02 µl compound in 100% DMSO. The kinase reaction was started by the addition of 2 µl diluted enzyme. The reaction was allowed to run for 1 hour at room temperature. The reaction was stopped by addition of 8 µl ADP detection mixture (1 x) (1 x Detection buffer + 4.78 µg/ml ADP2 Ab + 4 nM ADP Alexa633 Tracer). After an additional hour, fluorescent polarization (Ex: 630-35 nm, Em: 680-30 nm, Dich: 650 nm) was measured using an Analyst GT (Molecular Devices).

In data set [1] the test system is H1 N1 influenza virus strain A/WSN/33. Description: microbe, parasite or virus in culture. It is filed as cell-based. Conditions: 36 h, read-out: Influenza replication IC50.
In data set [2] the test system is HKE3 human colon carcinoma cell line. Description: In vitro growth inhibition of colon carcinoma cells, HKE3 (CellTiter-Glo). It is filed as cell-based. Conditions: 72 hours incubation.
The subject of data set [3] is HCT-116 human colon carcinoma cell line. Description: In vitro growth inhibition of colon carcinoma cells, HCT-116 (CellTiter-Glo). It is filed as cell-based. Conditions: 72 hours incubation, read-out: HCT116 EC50. (In general: ATP-based viability assays read luminescence as a measure of living cells.)
Data set [4] relates to HepG2 hepatoblastomaderived cell line. Description: In vitro growth inhibition, HepG2 (CellTiter-Glo). Format: cell-based. The settings on record: Homo sapiens, 72 hours incubation.
The test system of data set [5] is A549 human lung carcinoma cells. Description: Cell-based EC50 determination, A549 cells (CellTiter-Glo cell viability). The settings on record: A549, 24 h, read-out: A549 EC50 24h. On the procedure: A549 human lung carcinoma cells were cultured in RPMI 1640 medium (Sigma) supplemented with 10% fetal bovine serum (Sigma) and Antibiotic-Antimycotic (Sigma) in tissue culture flasks at 37°C in a humidified 5% CO2 atmosphere. Cells were routinely assayed for mycoplasma contamination.
Two thousand cells were plated in 384-well tissue culture plates, and treated after 24 hours with a 10-point dilution series of the compounds (1.5 nM-30 uM), using the vehicle, DMSO as control. Cells were incubated for 24 hours after which the relative cell density was determined by CellTiter-Glo Luminescent Cell Viability Assay (Promega). This method determines the number of metabolically active cells in the culture based on quantitation of the ATP present. The luminescent signal was measured with an Analyst GT multimode reader (Molecular Devices). […]

The next data set can be described thus: physchem. It is filed as physicochemical. The settings on record: kinetic from dmso stock. The procedure:
Samples were diluted in DMSO (control), phosphate buffer pH = 7.4 and pH = 2.0, from 5mM stock solutions (solved in DMSO), with a 120 µM final concentration. The samples were incubated for 24 hours at room temperature followed by 30 minutes centrifugation at 3700 rpm. 40 µl of the supernatants were injected into HPLC (Waters 2795 Alliance HPLC equipped with Waters 996 PDA Detector (HPLC column: Waters XBridge, RP C18, 3.5 µm, 4.6 mm x 50 mm; gradient MeCN/H2O, containing 0.1% HCOOH: 5% MeCN (0.5 min), 5% to 95% MeCN (5 min), 95% MeCN (0.5 min); flow rate: 2.0 ml/min)) and the AUC values (measured on sample specific wavelength) of the buffered samples were divided by the AUC values (same wavelength as buffered samples') of the DMSO control samples. Table 3: Solubility in water for several compounds according to general formula (I)

In a further data set the target is T1, human Clk1 kinase (Homo sapiens, UniProt P49759).
T1 construct: Each reaction consisted of 4 nM enzyme: Clk1 kinase domain
Description: In vitro Clk1 assay (IMAP fluorescence polarization). Format: biochemical. Conditions: 0.45 µM ATP. On the procedure:
The activity of the compounds described in the present invention can be determined by the following kinase assay, which measures the phosphorylation of a fluorescently-labeled peptide by human Clk1 kinase by fluorescent polarization using a commercially available IMAP Screening Express Assay Kit (Molecular Devices).
Clk1 kinase assays were performed in low protein binding 384-well plates (Corning). Test compounds were diluted in 100% DMSO to 5 mM stock concentration and then further dilutions were made in H2O or 100% DMSO to desirable concentrations.
Each reaction consisted of 4 nM enzyme: Clk1 kinase domain, 400 nM TAMRA-AFRREWSPGKEAKK-NH2 (Genecust), 0.45 µM ATP (Sigma) and kinase buffer: 20 mM TRIS pH 8, 1 mM DTT, 0.4 mM MgCl2, 0.4 mM MnCl2, 0.01 V/V% Tween20 (all reagents from Sigma-Aldrich)
For each reaction, 4 or 6 µl containing TAMRA-peptide, ATP and kinase buffer were combined with 2 µl diluted compound in H2O or 0.02 µl compound in 100% DMSO. The kinase reaction was started by the addition of 2 µl diluted enzyme. The reaction was allowed to run for 1 hour at room temperature. The reaction was stopped by adding 15 µl IMAP beads (1:600 beads in progressive (80 % buffer A, 20% buffer B) 1x buffer). After an additional hour, fluorescent polarization (Ex: 550-10 nm, Em: 590-10 nm, Dich: 561 nm) was measured using an Analyst GT (Molecular Devices).

SMILES strings stand for the structures. Values after ≈ are worked out from the molar mass of the structure shown. A value given as a limit tells only on which side of the number the result lay.

T1 sequence (P49759 161-477 limits assumed): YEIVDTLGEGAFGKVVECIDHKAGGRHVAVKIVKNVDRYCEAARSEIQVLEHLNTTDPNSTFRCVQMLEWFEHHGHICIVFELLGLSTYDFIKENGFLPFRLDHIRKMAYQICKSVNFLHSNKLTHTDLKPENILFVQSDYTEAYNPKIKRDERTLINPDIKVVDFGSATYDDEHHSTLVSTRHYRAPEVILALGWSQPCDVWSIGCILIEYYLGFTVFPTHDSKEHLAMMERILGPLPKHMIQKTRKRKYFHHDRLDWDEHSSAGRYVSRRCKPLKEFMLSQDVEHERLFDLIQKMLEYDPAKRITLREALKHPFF
Sequence of human Ack1 kinase (Q07912 whole entry): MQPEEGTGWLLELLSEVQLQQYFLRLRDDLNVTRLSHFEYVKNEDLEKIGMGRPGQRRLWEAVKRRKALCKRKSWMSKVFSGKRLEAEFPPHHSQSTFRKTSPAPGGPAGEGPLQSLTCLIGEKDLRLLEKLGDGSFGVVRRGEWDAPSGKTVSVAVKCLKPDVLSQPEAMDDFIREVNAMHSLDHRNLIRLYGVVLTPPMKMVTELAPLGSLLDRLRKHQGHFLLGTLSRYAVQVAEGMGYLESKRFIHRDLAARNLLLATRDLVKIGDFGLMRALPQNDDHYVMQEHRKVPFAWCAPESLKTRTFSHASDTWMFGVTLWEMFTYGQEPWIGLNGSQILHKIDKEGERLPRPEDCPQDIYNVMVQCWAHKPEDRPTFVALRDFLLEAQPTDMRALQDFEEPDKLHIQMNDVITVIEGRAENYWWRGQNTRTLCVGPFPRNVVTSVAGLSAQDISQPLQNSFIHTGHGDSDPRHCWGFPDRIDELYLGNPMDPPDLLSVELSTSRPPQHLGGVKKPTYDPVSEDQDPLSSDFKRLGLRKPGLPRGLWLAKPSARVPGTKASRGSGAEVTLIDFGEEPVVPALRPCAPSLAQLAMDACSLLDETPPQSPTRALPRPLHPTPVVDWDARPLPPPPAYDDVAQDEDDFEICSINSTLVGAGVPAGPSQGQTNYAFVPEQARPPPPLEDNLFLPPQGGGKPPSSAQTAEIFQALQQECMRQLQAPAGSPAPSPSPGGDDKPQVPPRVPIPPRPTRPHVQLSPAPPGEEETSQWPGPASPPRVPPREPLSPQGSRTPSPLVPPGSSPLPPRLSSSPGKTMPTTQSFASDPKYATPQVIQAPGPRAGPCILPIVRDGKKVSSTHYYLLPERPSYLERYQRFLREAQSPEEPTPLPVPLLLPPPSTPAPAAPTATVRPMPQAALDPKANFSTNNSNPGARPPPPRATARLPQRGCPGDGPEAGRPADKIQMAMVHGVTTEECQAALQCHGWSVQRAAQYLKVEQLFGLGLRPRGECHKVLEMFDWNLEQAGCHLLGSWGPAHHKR
Sequence of human Akt1 kinase (P31749 whole entry): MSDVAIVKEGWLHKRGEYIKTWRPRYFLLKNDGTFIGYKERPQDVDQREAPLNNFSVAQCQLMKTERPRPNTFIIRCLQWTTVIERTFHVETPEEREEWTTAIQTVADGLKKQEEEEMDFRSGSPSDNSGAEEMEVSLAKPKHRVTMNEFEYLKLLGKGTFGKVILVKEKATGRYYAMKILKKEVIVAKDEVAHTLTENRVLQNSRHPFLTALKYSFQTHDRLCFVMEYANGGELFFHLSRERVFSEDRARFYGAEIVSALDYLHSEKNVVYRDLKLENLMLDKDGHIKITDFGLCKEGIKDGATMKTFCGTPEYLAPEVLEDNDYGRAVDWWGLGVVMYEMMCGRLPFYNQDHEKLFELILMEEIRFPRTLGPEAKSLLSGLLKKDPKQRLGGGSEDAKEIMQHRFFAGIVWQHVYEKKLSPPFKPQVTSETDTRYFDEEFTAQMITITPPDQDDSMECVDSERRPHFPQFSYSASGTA

In the case of `C[C@H](NC(=O)c1ccc2c(c1)/C(=C(/Nc1ccc(CN3CCCCC3)cc1)c1ccccc1)C(=O)N2)c1ccccc1` [Compound 30, (3Z)-2-oxo-N-[(1S)-1-phenylethyl]-3-(phenyl{[4-(piperidin-1-ylmethyl)phenyl]amino}methylene)indoline-5-carboxamide], the inhibition at 12.5 µM at human Akt1 kinase came to 93%; on human Ack1 kinase it was 80.5%. For the same compound, the IC50 (commonly the concentration that gives 50% inhibition) against human Akt1 kinase was 1300 nM; in data set [1], < 10 nM; on human Clk1 kinase it was 10 nM. Besides, the EC50 – broadly, the concentration needed to bring the measured effect to its halfway point – in data set [2] came to 10 nM; in [3], 10 nM; in [4], 580 nM; in data set [5] it was 5980 nM. Moreover, the solubility (in general, the dissolved amount per volume that the medium holds) at 24 h is 110 to 120 µM (≈ 61.2 to 66.8 µg/mL) in the data set “physchem” (pH 2, aqueous buffer) and < 10 µM in “physchem” (pH 7.4, aqueous buffer).
For the compound `COc1cccc([C@@H](C)NC(=O)c2ccc3c(c2)/C(=C(/Nc2ccc(CN4CCCCC4)cc2)c2ccccc2)C(=O)N3)c1` [Compound 22, (3Z)-N-[(1R)-1-(3-methoxyphenyl)ethyl]-2-oxo-3-(phenyl{[4-(piperidin-1-ylmethyl)phenyl]amino}methylene)indoline-5-carboxamide], the inhibition at 12.5 µM at human Akt1 kinase was 88%; at human Ack1 kinase, 83.8%. Moreover, the IC50 was 110 nM on human Akt1 kinase, < 10 nM in [1] and 20 nM against human Clk1 kinase. Besides, the EC50 is 20 nM in data set [2], 40 nM in data set [3], 1060 nM in data set [4] and > 30000 nM in data set [5]. Besides, the solubility at 24 h in the data set “physchem” (pH 2, aqueous buffer) was 110 to 120 µM (≈ 64.5 to 70.4 µg/mL); in “physchem” (pH 7.4, aqueous buffer), < 10 µM.
For `O=C1Nc2ccc(C(=O)NCc3ccccc3)cc2/C1=C(/Nc1ccc(CN2CCCCC2)cc1)c1ccccc1` [Compound 20, (3Z)-N-benzyl-2-oxo-3-(phenyl{[4-(piperidin-1-ylmethyl)phenyl]amino}methylene)indoline-5-carboxamide], the results for the inhibition at 12.5 µM at human Akt1 kinase and on human Ack1 kinase were 91.6% and 72.7%, respectively. Besides, the 50% inhibitory concentration (IC50) was 910 nM against human Akt1 kinase, < 10 nM in data set [1] and 10 nM against human Clk1 kinase. Also, the EC50 in data set [2] is 10 nM; in data set [3], 20 nM; in [4], 790 nM; in data set [5], > 30000 nM. Besides, the solubility at 24 h was 110 to 120 µM (≈ 59.7 to 65.1 µg/mL) in “physchem” (pH 2, aqueous buffer) and < 10 µM in the data set “physchem” (pH 7.4, aqueous buffer).
Take `CC[C@@H](NC(=O)c1ccc2c(c1)/C(=C(/Nc1ccc(CN3CCCCC3)cc1)c1ccccc1)C(=O)N2)c1ccccc1` [Compound 18, (3Z)-2-oxo-3-(phenyl{[4-(piperidin-1-ylmethyl)phenyl]amino}methylene)-N-[(1R)-1-phenylpropyl]indoline-5-carboxamide]: the inhibition at 12.5 µM on human Akt1 kinase was 92.1%; on human Ack1 kinase it was 85.9%. For the same compound, the IC50 is 570 nM at human Akt1 kinase, < 10 nM in data set [1] and 30 nM on human Clk1 kinase. Besides, the EC50 in data set [2] is 4 nM; in [3], 10 nM; in data set [4], 310 nM; in [5], > 30000 nM. Further, the solubility at 24 h is 110 to 120 µM (≈ 62.8 to 68.5 µg/mL) in the data set “physchem” (pH 2, aqueous buffer) and < 10 µM in the data set “physchem” (pH 7.4, aqueous buffer).
In the case of `C[C@@H](NC(=O)c1ccc2c(c1)/C(=C(/Nc1ccc(CN3CCCCC3)cc1)c1ccccc1)C(=O)N2)c1ccc(F)cc1` [Compound 23, (3Z)-N-[(1R)-1-(4-fluorophenyl)ethyl]-2-oxo-3-(phenyl{[4-(piperidin-1-ylmethyl)phenyl]amino}methylene)indoline-5-carboxamide], the inhibition at 12.5 µM was 92.1% on human Akt1 kinase and 91.1% at human Ack1 kinase. Further, the IC50 is 180 nM at human Akt1 kinase, < 10 nM in [1] and 20 nM against human Clk1 kinase. The EC50 in data set [2] stood at 40 nM; in data set [3], 40 nM; in [4], 920 nM; in data set [5], 15300 nM. In addition, the solubility at 24 h in the data set “physchem” (pH 2, aqueous buffer) was 110 to 120 µM (≈ 63.2 to 69 µg/mL); in the data set “physchem” (pH 7.4, aqueous buffer), < 10 µM.
As to `COc1cccc([C@@H](C)NC(=O)c2ccc3c(c2)/C(=C(/Nc2ccc(CN4CCN(C)CC4)cc2)c2ccccc2)C(=O)N3)c1` [Compound 35, (3Z)-N-[(1R)-1-(3-methoxyphenyl)ethyl]-3-[({4-[(4-methylpiperazin-1-yl)methyl]phenyl}amino)(phenyl)methylene]-2-oxoindoline-5-carboxamide], the IC50 against human Akt1 kinase was 2510 nM; in data set [1], 20 nM; against human Clk1 kinase, 10 nM. The EC50 was 20 nM in [2], 30 nM in data set [3], 2120 nM in data set [4] and 4990 nM in [5]. The solubility at 24 h in “physchem” (pH 2, aqueous buffer) lay in the range of 110 to 120 µM (≈ 66.2 to 72.2 µg/mL); in the data set “physchem” (pH 7.4, aqueous buffer), 10 to 20 µM (≈ 6.02 to 12 µg/mL).
